These results are taken from US20260166128A1, “HUMAN AMYLIN ANALOG, AND DERIVATIVE THEREOF AND USE THEREOF” (priority 2022, published 2026).

Numbered stars: 1 amine (or outer) side, 2 acyl side, 3 side chain; on linkers, the order of the positions; unused ones are H or OH. Bridge positions count the residues as written; N and C are the ends. Square brackets hold non-standard residues; d marks the D form. Side chains are listed from the residue outwards. Peptide text beside a SMILES is read from it. * marks the point of attachment. C20 diacid = O=C(O)CCCCCCCCCCCCCCCCCCC(=O)*; C18 diacid = O=C(O)CCCCCCCCCCCCCCCCC(=O)*; γGlu = O=C(O)[C@H](CCC(=O)[*:2])N[*:1]; Hyp = O=C(O)[C@@H]1C[C@@H](O)CN1; Aze = O=C(O)[C@@H]1CCN1; AEEA = NCCOCCOCC(=O)O

Data set [1] can be described thus: Freeze-thaw stability of derivatives (freeze-thaw yield by liquid chromatography). It counts as physicochemical. The following applies: for Dissolution property: appearance after dissolution at 0.2 mg/ml in 20 mM phosphate buffer solution (PB) (pH 7.0); for Freeze storage property: appearance after overnight storage at −20° C. and thawing to room temperature, 0.2 mg/ml in 20 mM PB (pH 7.0); for Freeze storage yield: concentration of polypeptide after freezing and thawing / concentration before, by liquid chromatography, −20° C. overnight. An outline of the steps: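 Lyophilised peptide derivative dissolved at 0.2 mg/ml in 20 mM phosphate buffer, pH 7.0, frozen overnight at −20° C, then thawed at room temperature. Peptide concentration before and after freeze-thaw measured by reversed-phase HPLC on centrifuged supernatant; yield = post-thaw/pre-thaw concentration.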

For data set [2], the target named is T1, human amylin receptor (Homo sapiens, UniProt O60896+P30988).
T1 construct: host or cells: CHO-K1/Ga15/AMY3 cells, further stably transfected with a CRE-luciferase plasmid
T1 sequence (P30988 25-474): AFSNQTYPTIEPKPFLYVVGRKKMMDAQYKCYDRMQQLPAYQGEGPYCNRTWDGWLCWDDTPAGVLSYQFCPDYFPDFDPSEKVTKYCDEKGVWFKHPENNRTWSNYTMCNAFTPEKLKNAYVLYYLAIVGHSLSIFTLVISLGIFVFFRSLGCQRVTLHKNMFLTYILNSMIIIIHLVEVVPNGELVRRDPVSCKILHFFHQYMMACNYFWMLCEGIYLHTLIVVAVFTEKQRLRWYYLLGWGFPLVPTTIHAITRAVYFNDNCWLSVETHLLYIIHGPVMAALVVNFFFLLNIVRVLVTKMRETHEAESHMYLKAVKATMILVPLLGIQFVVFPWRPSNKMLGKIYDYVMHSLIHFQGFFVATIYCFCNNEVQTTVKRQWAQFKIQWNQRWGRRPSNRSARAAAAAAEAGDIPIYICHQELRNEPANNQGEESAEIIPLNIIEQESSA
T1 sequence (O60896 24-148 partner): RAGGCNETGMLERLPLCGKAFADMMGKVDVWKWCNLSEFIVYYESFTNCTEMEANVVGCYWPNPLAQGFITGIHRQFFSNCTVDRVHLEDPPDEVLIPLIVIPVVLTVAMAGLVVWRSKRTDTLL
In words: Luciferase assay of amylin derivatives in amylin receptor/CRE-luc CHO cell line. Type of data set: cell-based. Particulars: CHO-K1/Ga15/AMY3 CRE-luc cells, 24 hours incubation, F12 medium containing 10% FBS; read-out: EC50.
Description: The experiment was intended to detect the activity or efficacy of the amylin derivatives on a human amylin receptor in vitro by luciferase assay.
50 μL of growth medium (F12 medium containing 10% FBS) was added into each well of a white 96-well plate, and the stably transfected amylin/CRE-lue CHO cells were inoculated into the white 96-well plate at a density of about 20,000 cells/well for activity determination.

As to `CC[C@H](C)[C@H](NC(=O)[C@@H]1CCCN1C(=O)CNC(=O)[C@H](CCCCNC(=O)COCCOCCNC(=O)COCCOCCNC(=O)CC[C@H](NC(=O)CCCCCCCCCCCCCCCCCCC(=O)O)C(=O)O)NC(=O)[C@H](CC(N)=O)NC(=O)[C@H](CC(N)=O)NC(=O)[C@H](CO)NC(=O)[C@H](CO)NC(=O)[C@H](Cc1c[nH]cn1)NC(=O)[C@H](CCCNC(=N)N)NC(=O)[C@H](CC(C)C)NC(=O)[C@H](Cc1ccccc1)NC(=O)[C@H](CCC(=O)O)NC(=O)[C@H](C)NC(=O)[C@H](CC(C)C)NC(=O)[C@H](CCCNC(=N)N)NC(=O)[C@H](CCC(N)=O)NC(=O)[C@@H](NC(=O)[C@H](C)NC(=O)[C@@H]1CSSC[C@H](NC(=O)[C@@H](N)CCCNC(=N)N)C(=O)N[C@@H](CC(N)=O)C(=O)N[C@@H]([C@@H](C)O)C(=O)N[C@@H](C)C(=O)N[C@@H]([C@@H](C)O)C(=O)N1)[C@@H](C)O)C(=O)N[C@@H](CC(C)C)C(=O)N1CCC[C@H]1C(=O)N1CCC[C@H]1C(=O)N[C@H](C(=O)N[C@@H](CC(N)=O)C(=O)N[C@H](C(=O)NCC(=O)N[C@@H](CO)C(=O)N[C@@H](CC(N)=O)C(=O)N[C@H](C(=O)N1CCC[C@H]1C(N)=O)[C@@H](C)O)C(C)C)[C@@H](C)O` [PD003] (H-RCNTATCATQRLAEFLRHSSNNK([AEEA-AEEA-γGlu-C20 diacid])GPILPPTNVGSNTP-NH2; disulfide 2-7 (inferred); N-terminus assumed), in data set [1], the Dissolution property result is “Clear” and the Freeze storage property entry is given as “Clear”. Also, the EC50 in data set [2] came out at 140 pM.

With `CC[C@H](C)[C@H](NC(=O)[C@@H]1CCCN1C(=O)CNC(=O)[C@H](CC(C)C)NC(=O)[C@H](CC(N)=O)NC(=O)[C@H](CCCCNC(=O)COCCOCCNC(=O)CC[C@H](NC(=O)CCCCCCCCCCCCCCCCCCC(=O)O)C(=O)O)NC(=O)[C@H](CO)NC(=O)[C@H](CO)NC(=O)[C@H](Cc1c[nH]cn1)NC(=O)[C@H](CCCNC(=N)N)NC(=O)[C@H](CC(C)C)NC(=O)[C@H](Cc1ccccc1)NC(=O)[C@H](CC(=O)O)NC(=O)[C@H](C)NC(=O)[C@H](CC(C)C)NC(=O)[C@H](CCCNC(=N)N)NC(=O)[C@H](CCC(N)=O)NC(=O)[C@@H](NC(=O)[C@H](C)NC(=O)[C@@H]1CSSC[C@H](NC(=O)[C@@H](N)CCCNC(=N)N)C(=O)N[C@@H](CC(N)=O)C(=O)N[C@@H]([C@@H](C)O)C(=O)N[C@@H](C)C(=O)N[C@@H]([C@@H](C)O)C(=O)N1)[C@@H](C)O)C(=O)N[C@@H](CC(C)C)C(=O)N1CCC[C@H]1C(=O)N1CCC[C@H]1C(=O)N[C@H](C(=O)N[C@@H](CC(N)=O)C(=O)N[C@H](C(=O)NCC(=O)N[C@@H](CO)C(=O)N[C@@H](CC(N)=O)C(=O)N[C@H](C(=O)N1C[C@H](O)C[C@H]1C(N)=O)[C@@H](C)O)C(C)C)[C@@H](C)O` [PD114] (H-RCNTATCATQRLADFLRHSSK([AEEA-γGlu-C20 diacid])NLGPILPPTNVGSNT[Hyp]-NH2; disulfide 2-7 (inferred); N-terminus assumed), in data set [1], the Dissolution property entry is listed as “Clear”, the Freeze storage property result is “Clear” and the Freeze storage yield was determined as 101.02%. Besides, the concentration giving a half-maximal response (EC50) in data set [2] came to 29 pM.

Take `CC[C@H](C)[C@H](NC(=O)[C@@H]1CCCN1C(=O)CNC(=O)[C@H](CC(C)C)NC(=O)[C@H](CC(N)=O)NC(=O)[C@H](CC(N)=O)NC(=O)[C@H](CO)NC(=O)[C@H](CO)NC(=O)[C@H](Cc1c[nH]cn1)NC(=O)[C@H](CCCNC(=N)N)NC(=O)[C@H](CC(C)C)NC(=O)[C@H](Cc1ccccc1)NC(=O)[C@H](CC(=O)O)NC(=O)[C@H](C)NC(=O)[C@H](CC(C)C)NC(=O)[C@H](CCCNC(=N)N)NC(=O)[C@H](CCC(N)=O)NC(=O)[C@@H](NC(=O)[C@H](C)NC(=O)[C@@H]1CSSC[C@H](NC(=O)[C@H](CCCCN)NC(=O)COCCOCCNC(=O)COCCOCCNC(=O)CC[C@H](NC(=O)CCCCCCCCCCCCCCCCC(=O)O)C(=O)O)C(=O)N[C@@H](CC(N)=O)C(=O)N[C@@H]([C@@H](C)O)C(=O)N[C@@H](C)C(=O)N[C@@H]([C@@H](C)O)C(=O)N1)[C@@H](C)O)C(=O)N[C@@H](CC(C)C)C(=O)N1CCC[C@H]1C(=O)N1CCC[C@H]1C(=O)N[C@H](C(=O)N[C@@H](CC(N)=O)C(=O)N[C@H](C(=O)NCC(=O)N[C@@H](CO)C(=O)N[C@@H](CC(N)=O)C(=O)N[C@H](C(=O)N1C[C@H](O)C[C@H]1C(N)=O)[C@@H](C)O)C(C)C)[C@@H](C)O` [PD126] ({C18 diacid-γGlu-AEEA-AEEA}-KCNTATCATQRLADFLRHSSNNLGPILPPTNVGSNT[Hyp]-NH2; disulfide 2-7 (inferred)): in data set [1], the Dissolution property entry is “Clear”, the Freeze storage property result was “Clear” and the Freeze storage yield was 99.24%. Moreover, in data set [2], the EC50 was determined as 28 pM.

With `CC[C@H](C)[C@H](NC(=O)[C@@H]1CCCN1C(=O)[C@H](CCCCNC(=O)CC[C@H](NC(=O)CCCCCCCCCCCCCCCCCCC(=O)O)C(=O)O)NC(=O)[C@H](CC(C)C)NC(=O)[C@H](CC(N)=O)NC(=O)[C@H](CC(N)=O)NC(=O)[C@H](CO)NC(=O)[C@H](CO)NC(=O)[C@H](Cc1c[nH]cn1)NC(=O)[C@H](CCCNC(=N)N)NC(=O)[C@H](CC(C)C)NC(=O)[C@H](Cc1ccccc1)NC(=O)[C@H](CCC(=O)O)NC(=O)[C@H](C)NC(=O)[C@H](CC(C)C)NC(=O)[C@H](CCCNC(=N)N)NC(=O)[C@H](CCC(N)=O)NC(=O)[C@@H](NC(=O)[C@H](C)NC(=O)[C@@H]1CSSC[C@H](NC(=O)[C@@H](N)CCCNC(=N)N)C(=O)N[C@@H](CC(N)=O)C(=O)N[C@@H]([C@@H](C)O)C(=O)N[C@@H](C)C(=O)N[C@@H]([C@@H](C)O)C(=O)N1)[C@@H](C)O)C(=O)N[C@@H](CC(C)C)C(=O)N1CCC[C@H]1C(=O)N1CCC[C@H]1C(=O)N[C@H](C(=O)N[C@@H](CC(N)=O)C(=O)N[C@H](C(=O)NCC(=O)N[C@@H](CO)C(=O)N[C@@H](CC(N)=O)C(=O)N[C@H](C(=O)N[C@@H](Cc1ccc(O)cc1)C(N)=O)[C@@H](C)O)C(C)C)[C@@H](C)O` [PD017] (H-RCNTATCATQRLAEFLRHSSNNLK([γGlu-C20 diacid])PILPPTNVGSNTY-NH2; disulfide 2-7 (inferred); N-terminus assumed), in data set [1], the Dissolution property entry is reported as “Clear”, the Freeze storage property result is “Muddy” and the Freeze storage yield stood at 100.81%. Further, in data set [2], the EC50 turned out to be 772 pM.

Regarding `CC[C@H](C)[C@H](NC(=O)[C@@H]1CCCN1C(=O)[C@H](CCCCNC(=O)CC[C@H](NC(=O)CCCCCCCCCCCCCCCCCCC(=O)O)C(=O)O)NC(=O)[C@H](CC(C)C)NC(=O)[C@H](CC(N)=O)NC(=O)[C@H](CC(N)=O)NC(=O)[C@H](CO)NC(=O)[C@H](CO)NC(=O)[C@H](Cc1c[nH]cn1)NC(=O)[C@H](CCCNC(=N)N)NC(=O)[C@H](CC(C)C)NC(=O)[C@H](Cc1ccccc1)NC(=O)[C@H](CC(=O)O)NC(=O)[C@H](C)NC(=O)[C@H](CC(C)C)NC(=O)[C@H](CCCNC(=N)N)NC(=O)[C@H](CCC(N)=O)NC(=O)[C@@H](NC(=O)[C@H](C)NC(=O)[C@@H]1CSSC[C@H](NC(=O)[C@@H](N)CCCNC(=N)N)C(=O)N[C@@H](CC(N)=O)C(=O)N[C@@H]([C@@H](C)O)C(=O)N[C@@H](C)C(=O)N[C@@H]([C@@H](C)O)C(=O)N1)[C@@H](C)O)C(=O)N[C@@H](CC(C)C)C(=O)N1CCC[C@H]1C(=O)N1CCC[C@H]1C(=O)N[C@H](C(=O)N[C@@H](CC(N)=O)C(=O)N[C@H](C(=O)NCC(=O)N[C@@H](CO)C(=O)N[C@@H](CC(N)=O)C(=O)N[C@H](C(=O)N1CC[C@H]1C(N)=O)[C@@H](C)O)C(C)C)[C@@H](C)O` [PD060] (H-RCNTATCATQRLADFLRHSSNNLK([γGlu-C20 diacid])PILPPTNVGSNT[Aze]-NH2; disulfide 2-7 (inferred)), in data set [1], the Dissolution property entry is “Clear”, the Freeze storage property entry is “Clear” and the Freeze storage yield worked out at 104.35%. Further, in data set [2], the EC50 turned out to be 246 pM.

The EC50 is the concentration that produces a half-maximal response.
